# Patent US20230064292A1, “METHODS OF TREATING PSMA-POSITIVE CANCER USING RADIONUCLIDE THERAPY” (priority 2020, published 2023)
# Several values for one entry are separate records, joined by “and”; a condition that tells them apart may be missing. Equal entries are not always repeated.
# How the values were obtained:
# [1] = Preclinical rat studies of CTT1403 kidney exposure; assay type: in vivo
# Text: (§1) CTT1403 localization in various organs is accomplished by estimating dosimetry using SPECT/CT or SPECT/MRI imaging of the radioisotope component (using the gamma particle emission) of CTT1403, ^177Lu, up to 8 days after the first dose. […] Preclinical studies in rats with CTT1403 identified the kidneys as the dose limiting organ. Table 2, below, summarizes kidney dosimetry calculated from the first 15 patients enrolled in the study after receipt of escalating doses of CTT1403 and contrasts it with the predicted kidney exposure from rat studies. […] Preclinical studies in rats estimated expected kidney exposure of ˜5.2 Gy/GBq. […] CTT1403 may be sequestered in tumors and under exposing the kidney.
# [2] = Kidney dosimetry by SPECT/CT or SPECT/MRI in patients; assay type: in vivo, human
# Text: as §1
# [3] = Pharmacokinetics of CTT1403 in mCRPC subjects (radioactivity of blood samples); assay type: in vivo, human
# Experimental: In order to investigate the pharmacokinetics of CTT1403, doses were administered by IV to fifteen subjects. The subjects each had histologically confirmed prostate adenocarcinoma that was metastatic and castration resistant (mCRPA). Subjects with de novo small cell carcinoma of the prostate were excluded. The subjects further had at least three metastatic foci avid for PSMA-specific PET agent CTT1057 or 68Ga-PSMA-11 uptake. PSMA avidity was defined as SUVmax>mediastinal blood pool. The subjects had received docetaxel, were ineligible for docetaxel, or had refused docetaxel. They all further had progression by the PCWG3 criteria during or after treatment with abiraterone, enzalutamide, and/or apalutamide, and had serum testosterone<50 ng/dL. Subjects without a history of bilateral orchiectomy were required to remain on a luteinizing hormone-releasing hormone (LHRH) analog during the course of the protocol therapy.
# Pharmacokinetics assessment follows the movement of drugs throughout the body, including measurement of the drug's half-life in circulation. The longer a drug remains available in circulation before being cleared from the body, the greater the opportunity for it to meet its target and achieve the desired therapeutic effect. To measure pharmacokinetics, remaining CTT1403 was estimated by measuring the radioactivity of blood sample withdrawn at particular time points. Each patient received a dose ranging from 0.75 GBq to 7.5 GBq.
# This is already more than a 5.3-fold greater distribution phase and 3.5-fold greater elimination phase than the PSMA-617 agent (without the albumin binder) and will further increase as the dose increases. […] CTT anticipates that these early observations will translate to compelling efficacy as the trial progresses. Table 1 reports the blood distribution and elimination half-lives for 13 of 15 patients enrolled in the study. […] Longer clearance half-lives will advantageously yield enhanced drug delivery as CTT1403 has more time to find and bind to expressed PSMA. This effect also allows more time for the therapeutic agent to reach smaller tumors or poorly-vascularized tumors. Longer systemic circulation of CTT1403 afforded by the albumin motif believed to lead to lower dosing of the kidneys, a dose-limiting factor, allowing higher dosages to be safely administered.
# [4] = patient 1, injected activity 0.73 GBq (19.6 mCi)
# [5] = patient 2, injected activity 1.50 GBq (40.5 mCi)
# [6] = patient 3, injected activity 2.03 GBq (54.8 mCi)
# [7] = patient 4, injected activity 3.00 GBq (81.1 mCi)
# [8] = patient 5, injected activity 2.95 GBq (79.8 mCi)
# [9] = patient 6, injected activity 2.98 GBq (80.5 mCi)
# [10] = patient 7, injected activity 4.48 GBq (121.1 mCi)
# [11] = patient 8, injected activity 4.52 GBq (122.2 mCi)
# [12] = patient 9, injected activity 3.53 GBq (95.5 mCi)
# [13] = patient 10, injected activity 4.48 GBq (121.2 mCi)
# [14] = patient 11, injected activity 5.66 GBq (153.0 mCi)
# [15] = patient 12, injected activity 5.99 GBq (162.0 mCi)
# [16] = patient 13, injected activity 5.99 GBq (162.0 mCi)
# [17] = patient 14, injected activity 7.98 GBq (215.7 mCi)
# [18] = patient 15, injected activity 7.77 GBq (210.0 mCi)
# [19] = 1.5 GBq IV (1st patient at this dose)
# [20] = 2.0 GBq IV (1st patient at this dose)
# [21] = 3.0 GBq IV (1st patient at this dose)
# [22] = 3.0 GBq IV (2nd patient at this dose)
# [23] = 3.0 GBq IV (3rd patient at this dose)
# [24] = 4.5 GBq IV (1st patient at this dose)
# [25] = 4.5 GBq IV (2nd patient at this dose)
# [26] = 4.5 GBq IV (3rd patient at this dose)
# [27] = 6.0 GBq IV (1st patient at this dose)
# [28] = 6.0 GBq IV (2nd patient at this dose)
# [29] = 6.0 GBq IV (3rd patient at this dose)
# [30] = 7.5 GBq IV (1st patient at this dose)
# [31] = 7.5 GBq IV (2nd patient at this dose)
# [32] = half-life of CTT1403 vs reported 177Lu-PSMA-617
# [33] = mean of 13 patients, 1.5-7.5 GBq IV, preliminary
smiles,measurement,setting,value
O=C(O)CC[C@H](NP(=O)(O)OCCC[C@H](NC(=O)CC[C@H](NC(=O)CCCCCNC(=O)CCC(NC(=O)CCOCCOCCOCCOCCNC(=O)CCC(=O)N1Cc2ccccc2-c2c(nnn2CCCNC(=O)CN2CCN3CCN4CCN(CC2)CC(=O)[O][177Lu]([O]C(=O)C3)[O]C(=O)C4)-c2ccccc21)C(=O)NC(CCCCNC(=O)CCCc1ccc(I)cc1)C(=O)O)C(=O)O)C(=O)O)C(=O)O (stereo partly drawn) [CTT1403],dose limiting organ,[1]; preclinical studies in rats,kidneys
same,expected kidney exposure estimated from preclinical studies in rats,[1]; predicted human kidney exposure from rat studies,~5.2 Gy/GBq
same,"Kidney dose, Dose Gy/GBq",[2]; CTT1403 (7.5 GBq +/− 10%),0.689 Gy/GBq
same,"Kidney dose, Mean Dose (Gy)",[2]; CTT1403 (7.5 GBq +/− 10%),4.895 Gy
same,Kidney dosimetry calculated from the first 15 patients,"[2]; first 15 patients enrolled, escalating doses",0.687 Gy/GBq
same,factor by which clinical kidney dosimetry is lower than predicted by rat studies,[2]; first 15 patients vs rat prediction,~10
same,absorbed dose (Gy) - L. kidney,[2]; [4],0.441 Gy
same,absorbed dose (Gy) - R. kidney,[2]; [4],0.430 Gy
same,absorbed dose per GBq (Gy/GBq) - L. kidney,[2]; [4],0.608 Gy/GBq
same,absorbed dose per GBq (Gy/GBq) - R. kidney,[2]; [4],0.593 Gy/GBq
same,absorbed dose (Gy) - L. kidney,[2]; [5],0.915 Gy
same,absorbed dose (Gy) - R. kidney,[2]; [5],0.876 Gy
same,absorbed dose per GBq (Gy/GBq) - L. kidney,[2]; [5],0.610 Gy/GBq
same,absorbed dose per GBq (Gy/GBq) - R. kidney,[2]; [5],0.584 Gy/GBq
same,absorbed dose (Gy) - L. kidney,[2]; [6],1.54 Gy
same,absorbed dose (Gy) - R. kidney,[2]; [6],2.07 Gy
same,absorbed dose per GBq (Gy/GBq) - L. kidney,[2]; [6],0.757 Gy/GBq
same,absorbed dose per GBq (Gy/GBq) - R. kidney,[2]; [6],1.020 Gy/GBq
same,absorbed dose (Gy) - L. kidney,[2]; [7],1.97 Gy
same,absorbed dose (Gy) - R. kidney,[2]; [7],1.70 Gy
same,absorbed dose per GBq (Gy/GBq) - L. kidney,[2]; [7],0.655 Gy/GBq
same,absorbed dose per GBq (Gy/GBq) - R. kidney,[2]; [7],0.565 Gy/GBq
same,absorbed dose (Gy) - L. kidney,[2]; [8],4.41 Gy
same,absorbed dose (Gy) - R. kidney,[2]; [8],4.84 Gy
same,absorbed dose per GBq (Gy/GBq) - L. kidney,[2]; [8],1.494 Gy/GBq
same,absorbed dose per GBq (Gy/GBq) - R. kidney,[2]; [8],1.638 Gy/GBq
same,absorbed dose (Gy) - L. kidney,[2]; [9],2.75 Gy
same,absorbed dose (Gy) - R. kidney,[2]; [9],2.65 Gy
same,absorbed dose per GBq (Gy/GBq) - L. kidney,[2]; [9],0.922 Gy/GBq
same,absorbed dose per GBq (Gy/GBq) - R. kidney,[2]; [9],0.889 Gy/GBq
same,absorbed dose (Gy) - L. kidney,[2]; [10],2.54 Gy
same,absorbed dose (Gy) - R. kidney,[2]; [10],2.83 Gy
same,absorbed dose per GBq (Gy/GBq) - L. kidney,[2]; [10],0.567 Gy/GBq
same,absorbed dose per GBq (Gy/GBq) - R. kidney,[2]; [10],0.632 Gy/GBq
same,absorbed dose (Gy) - L. kidney,[2]; [11],3.45 Gy
same,absorbed dose (Gy) - R. kidney,[2]; [11],3.54 Gy
same,absorbed dose per GBq (Gy/GBq) - L. kidney,[2]; [11],0.764 Gy/GBq
same,absorbed dose per GBq (Gy/GBq) - R. kidney,[2]; [11],0.784 Gy/GBq
same,absorbed dose (Gy) - L. kidney,[2]; [12],1.71 Gy
same,absorbed dose (Gy) - R. kidney,[2]; [12],1.85 Gy
same,absorbed dose per GBq (Gy/GBq) - L. kidney,[2]; [12],0.484 Gy/GBq
same,absorbed dose per GBq (Gy/GBq) - R. kidney,[2]; [12],0.522 Gy/GBq
same,absorbed dose (Gy) - L. kidney,[2]; [13],2.26 Gy
same,absorbed dose (Gy) - R. kidney,[2]; [13],2.75 Gy
same,absorbed dose per GBq (Gy/GBq) - L. kidney,[2]; [13],0.505 Gy/GBq
same,absorbed dose per GBq (Gy/GBq) - R. kidney,[2]; [13],0.612 Gy/GBq
same,absorbed dose (Gy) - L. kidney,[2]; [14],3.32 Gy
same,absorbed dose (Gy) - R. kidney,[2]; [14],3.08 Gy
same,absorbed dose per GBq (Gy/GBq) - L. kidney,[2]; [14],0.587 Gy/GBq
same,absorbed dose per GBq (Gy/GBq) - R. kidney,[2]; [14],0.543 Gy/GBq
same,absorbed dose (Gy) - L. kidney,[2]; [15],3.15 Gy
same,absorbed dose (Gy) - R. kidney,[2]; [15],2.81 Gy
same,absorbed dose per GBq (Gy/GBq) - L. kidney,[2]; [15],0.525 Gy/GBq
same,absorbed dose per GBq (Gy/GBq) - R. kidney,[2]; [15],0.469 Gy/GBq
same,absorbed dose (Gy) - L. kidney,[2]; [16],2.65 Gy
same,absorbed dose (Gy) - R. kidney,[2]; [16],2.50 Gy
same,absorbed dose per GBq (Gy/GBq) - L. kidney,[2]; [16],0.443 Gy/GBq
same,absorbed dose per GBq (Gy/GBq) - R. kidney,[2]; [16],0.417 Gy/GBq
same,absorbed dose (Gy) - L. kidney,[2]; [17],5.53 Gy
same,absorbed dose (Gy) - R. kidney,[2]; [17],5.41 Gy
same,absorbed dose per GBq (Gy/GBq) - L. kidney,[2]; [17],0.693 Gy/GBq
same,absorbed dose per GBq (Gy/GBq) - R. kidney,[2]; [17],0.678 Gy/GBq
same,absorbed dose (Gy) - L. kidney,[2]; [18],4.89 Gy
same,absorbed dose (Gy) - R. kidney,[2]; [18],3.75 Gy
same,absorbed dose per GBq (Gy/GBq) - L. kidney,[2]; [18],0.629 Gy/GBq
same,absorbed dose per GBq (Gy/GBq) - R. kidney,[2]; [18],0.482 Gy/GBq
same,Distribution Half-life,[3]; [19],0.75 h
same,Elimination Half-life 2,[3]; [19],28.88 h
same,Distribution Half-life,[3]; [20],1.04 h
same,Elimination Half-life 2,[3]; [20],23.90 h
same,Distribution Half-life,[3]; [21],0.51 h
same,Elimination Half-life 2,[3]; [21],27.73 h
same,Distribution Half-life,[3]; [22],0.89 h
same,Elimination Half-life 2,[3]; [22],31.51 h
same,Distribution Half-life,[3]; [23],0.70 h
same,Elimination Half-life 2,[3]; [23],36.48 h
same,Distribution Half-life,[3]; [24],0.85 h
same,Elimination Half-life 2,[3]; [24],33.01 h
same,Distribution Half-life,[3]; [25],0.85 h
same,Elimination Half-life 2,[3]; [25],34.66 h
same,Distribution Half-life,[3]; [26],0.85 h
same,Elimination Half-life 2,[3]; [26],43.32 h
same,Distribution Half-life,[3]; [27],0.78 h
same,Elimination Half-life 2,[3]; [27],46.21 h
same,Distribution Half-life,[3]; [28],0.57 h
same,Elimination Half-life 2,[3]; [28],30.14 h
same,Distribution Half-life,[3]; [29],1.06 h
same,Elimination Half-life 2,[3]; [29],33.01 h
same,Distribution Half-life,[3]; [30],1.20 h
same,Elimination Half-life 2,[3]; [30],57.76 h
same,Distribution Half-life,[3]; [31],1.00 h
same,Elimination Half-life 2,[3]; [31],57.76 h
same,CTT1403 detection in blood,"[3]; after 2 weeks, subjects who received the 7.5 GBq dose",still detected
same,fold greater distribution phase than the PSMA-617 agent,[3]; [32],> 5.3 fold
same,fold greater elimination phase than the PSMA-617 agent,[3]; [32],> 3.5 fold
same,Distribution half-life (mean),[3]; [33],0.85 ± 0.2 h
same,Elimination half-life (mean),[3]; [33],37.3 ± 10.9 h and 37.26 h
same,"Distribution phase half-life, range","[3]; range over patients, 1.5-7.5 GBq IV",0.51 to 1.2 h
same,circulation time compared with 177Lu-PSMA-617,[3]; vs agent lacking the albumin binding moiety,at least two to ten-fold greater
